From article PMC10514295, “Imidazo[1,2-c]quinazolines as a novel and potent scaffold of α-glucosidase inhibitors: design, synthesis, biological evaluations, and in silico studies” (Scientific Reports, 2023) come the findings set out here.

As usually defined, the IC50 is the concentration at which inhibition is half-maximal. What is called Ki is a dissociation constant, usually derived from enzyme kinetics or from competition with a known ligand. A lower Ki goes with a stronger hold on the target.

Test [1] has as its target T1, Saccharomyces cerevisiae α-glucosidase (Saccharomyces cerevisiae, UniProt P53341).
T1 construct: purchased Sigma-Aldrich
Description: biochemical. The settings on record: mean ± SD, at least three experiments; substrate p-nitrophenyl glucopyranoside, pH 6.8, 37 °C; read-out: IC50 (in vitro α-glucosidase inhibitory activity). On the procedure:
The target substituted imidazo[1,2-c]quinazolines 6a–c and 11a–o were evaluated for their in vitro Saccharomyces cerevisiae α-glucosidase inhibitory activities to investigate the role of substituents on the imidazole moiety and the phenyl ring originated from benzaldehyde moieties.
α-Glucosidase enzyme ((EC3.2.1.20, Saccharomyces cerevisiae, 20 U mg^−1) and substrate (p-nitrophenyl glucopyranoside) were purchased from Sigma-Aldrich. Enzyme was prepared in potassium phosphate buffer (pH 6.8, 50 mM), as well as substituted benzo[4,5]imidazo[1,2-c]quinazoline 6a-c and highly-substituted imidazo[1,2-c]quinazolines 11a–o were dissolved in DMSO (10% final concentration). The various concentrations of these compounds ([…]), enzyme solution ([…]) and potassium phosphate buffer ([…]) were added in the 96-well plate and incubated at 37 °C for 10 min. Afterwards, the substrate ([…], 4 mM) was added to the mentioned mixture and allowed to incubate at 37 °C for 20 min. […] The percentage of enzyme inhibition was calculated using Eq. (6) and IC50 values were obtained from non-linear regression curve using the Logit method.6 %Inhibition=Abscontrol-Abssample/Abscontrol×100

Test [2] addresses T2, α-glucosidase (Saccharomyces cerevisiae, UniProt P53341). Description: Enzyme kinetic study (Lineweaver–Burk plot).
Description: [I] is the concentration of inhibitor.
Therefore, the slope of Lineweaver Burk plot is equal to:10 Slope=Km/Vmax1+I/KI
The Kmapp value is calculated by Eq. (6):11 Kmapp=Km1+I/KI
[I], Eq. (7) can be used for the calculation of KI[59],[60]:12 Kmapp=Km+Km/KII
For test [3], the target named is T2, α-glucosidase. In words: Fluorescence spectroscopy (quenching) measurements. More on the design: purchased Sigma-Aldrich. The test is classed as binding. The procedure: In present study, fluorescence spectroscopy measurement was performed between imidazo[1,2-c]quinazoline 11j and the active site of enzyme using a Synergy HTX multi-mode reader (Biotek Instruments, Winooski, VT, USA) equipped with a quartz cuvette of 10 mm. The excitation wavelength was 280 nm, and the emission spectra were reported at five different temperatures in the range from 300 to 450 nm with 10 accumulations for each collection point. The emission spectrum was adjusted for the background fluorescence from the buffer solution and for the inner filter effect promoted by the inhibitors (Fig. 5).
There are two types of fluorescence quenching: dynamic and static. Dynamic quenching arises from the collisional encounter between the fluorophore (tryptophan residues) and the quencher (inhibitor). […] Therefore, the biding parameters can be determined as follow:
The reaction is determined as P + D → DnP in which P is the protein, D is the drug molecule (inhibitor), and DnP is the new complex molecule. The binding constant for this complex for this complex, denoted as KA, is calculated using Eq. (1). […] Since the number of the binding site of protein and drug is n and 1, respectively, the equivalent concentration of the complex DnP is n[DnP]. Moreover, the equivalent concentration of the protein is n[P], and the equivalent concentration of the drug is [D]:1 KA=nDnP/DnP
The total concentration of protein is [Pt], and the total concentration of the drug is [Dt]; therefore, [Pt] = [Pf] + [DnP] and [Df] = [Dt]−n[DnP]. Since protein (P) is the only fluorescence in present study, thus:2 F0/F=Pt/Pf
F and F0 are the fluorescence intensity of protein in the presence and absence of inhibitor, respectively. Therefore, the relationship between the fluorescence intensity and the total concentration of the drug could be deduced:3 F0/F=KADtF0/F0-F-n KAPt
As the total concentration of protein was kept at a constant value (at 46 nM), while the total concentration of the drug was changed. Using the Eq. (3), a plot of F0/F Vs. [Dt] F0/(F0−F) was obtained, as depicted in Fig. 6.
To this aim, different solutions containing different concentrations (0 to 1.0 µM) of the inhibitor and α-glucosidase (3 ml, 0.1 U ml^−1) were held for 10 min to equilibrate before measurements. Moreover, the fluorescence of the buffer containing compound 11j in the absence of the enzyme were subtracted as the background fluorescence. Afterwards, at the excitation wavelength of 280 nm, the fluorescence emission spectra were measured from 300 to 450 nm using a Synergy HTX multi-mode reader (Biotek Instruments, Winooski, VT, USA) equipped with a 1.0 cm quartz cell holder.

Test [4] addresses T2, α-glucosidase. In words: Thermodynamic analysis of binding to α-glucosidase. More on the design: purchased Sigma-Aldrich. An excerpt: This fluorescent intensity data was plotted as a function of temperature and binding constants; therefore, thermodynamic profile including ΔG (free energy change), ΔH (enthalpy change), and ΔS (entropy change) could be computed to determine the type of non-covalent forces between imidazo[1,2-c]quinazoline 11j and binding site of α‑glucosidase. These forces between the protein and inhibitor can be categorized into four groups: hydrogen bond, van der Waals forces, electrostatic attraction, and hydrophobic interactions. To identify the type of interactions in present study, thermodynamic parameters must be calculated using following equations:4 lnKA2/KA1=ΔH/R1/T2-1/T1 5 ΔG=-RT ln KA=ΔH-TΔS
Already, there was some information including binding constants (KA2 = 36.6 × 10^4 and KA1 = 40.5 × 10^4) as well as initial and final temperatures (T1 = 20 ℃ (293 K) and T2 = 60 ℃ (333 K)). Therefore, using Eq. (4), ΔH is obtained − 2.17 (kJ mol^–1) and subsequently using Eq. (5), ΔG and ΔS values are calculated − 20.6 (kJ mol^–1) and 62.9 (J mol^–1 K^–1), respectively.
Considering the sign of these thermodynamic parameters, the type of non-covalent force could be determined as follow: (1) ΔH > 0, ΔS > 0, hydrophobic interactions; (2) ΔH < 0, ΔS > 0, van der Waals forces; (3) ΔH < 0, ΔS < 0, hydrogen bond and van der Waals interactions; and (4) ΔH < 0, ΔS > 0, electrostatic interactions.

Test [5] addresses T2, α-glucosidase. In words: Circular dichroism spectroscopy, secondary structure content of the enzyme. More on the design: purchased Sigma-Aldrich. The settings on record: inhibitor 12.4 μM. On the procedure:
The difference between the absorption of right and left circularly polarized light is measured in circular dichroism spectroscopy (CD) in order to reveal the chiral environment around amino acid residues. The CD spectrum in the far ultraviolet region ranged from 190 to 240 nm is mainly used to provide valuable information about the arrangement of protein bonds and secondary structure of the proteins in dilute solutions. There are several principal conformations like α-helix, extended β structure (or β-sheet), β-turn, and random coil (which are unordered structures). They are characterized as follow: α-helix structures by negative CD bands at 222 and 208 nm and a positive CD band at approximately 190 nm; β-sheet structures by a negative CD band in the region of 210–220 nm; β-turn structures by a negative CD band between 180 and 190 nm; and the spectra of random coil by a characteristic negative CD band in region of 200 nm[49],[50].
To study the impact of imidazo[1,2-c]quinazoline 11j on the secondary structure of α-glucosidase (Fig. 4b), the CD spectra (180–250 nm) was measured and analyzed using the CDNN software to be compared with the native enzyme (Fig. 4a). […] Moreover, this compound can change the secondary structure of α-glucosidase, resulting to inhibit its performance.
For orientation: Circular dichroism is widely used to follow secondary structure.

Each structure is given as a SMILES string.

T2 sequence (P53341 whole entry): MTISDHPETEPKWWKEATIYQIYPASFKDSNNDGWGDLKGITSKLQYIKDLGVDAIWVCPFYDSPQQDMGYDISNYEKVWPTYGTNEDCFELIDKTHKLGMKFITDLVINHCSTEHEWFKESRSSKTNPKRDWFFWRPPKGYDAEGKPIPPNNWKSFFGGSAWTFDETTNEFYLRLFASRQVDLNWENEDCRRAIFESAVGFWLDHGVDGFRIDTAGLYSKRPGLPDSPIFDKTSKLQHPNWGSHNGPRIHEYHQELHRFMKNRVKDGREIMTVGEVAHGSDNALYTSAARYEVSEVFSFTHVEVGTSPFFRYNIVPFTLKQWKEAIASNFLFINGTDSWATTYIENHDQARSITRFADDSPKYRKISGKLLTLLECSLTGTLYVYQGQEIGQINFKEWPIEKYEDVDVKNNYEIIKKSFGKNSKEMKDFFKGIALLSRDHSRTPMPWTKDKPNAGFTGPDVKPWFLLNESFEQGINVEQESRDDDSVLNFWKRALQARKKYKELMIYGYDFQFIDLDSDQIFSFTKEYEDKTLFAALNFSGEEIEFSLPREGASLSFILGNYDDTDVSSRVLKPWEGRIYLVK
T1 sequence (P53341 whole entry): as above

Regarding `c1ccc(-c2nc3ccccc3c3nc4ccccc4n23)cc1` [6a, 6-phenylbenzo[4,5]imidazo[1,2-c]quinazoline], the half-inhibitory concentration (IC50) in test [1] came out at 256.48 ± 0.14 µM.
Still for that read-out and setting: under `Clc1ccc(-c2nc3ccccc3c3nc4ccccc4n23)cc1` [6b, 6-(4-chlorophenyl)benzo[4,5]imidazo[1,2-c]quinazoline] stands 308.33 ± 0.06 µM; under `COc1ccc(-c2nc3ccccc3c3nc4ccccc4n23)cc1` [6c, 6-(4-methoxyphenyl)benzo[4,5]imidazo[1,2-c]quinazoline], 124.3 ± 0.37 µM; under `c1ccc(-c2nc3c4ccccc4nc(-c4ccccc4)n3c2-c2ccccc2)cc1` [11a, 2,3,5-triphenylimidazo[1,2-c]quinazoline], 209.15 ± 0.04 µM.
For the compound `Clc1ccc(-c2nc3ccccc3c3nc(-c4ccccc4)c(-c4ccccc4)n23)cc1` [11b, 5-(4-chlorophenyl)-2,3-diphenylimidazo[1,2-c]quinazoline], the IC50 in test [1] is 273.28 ± 0.09 µM.
`Clc1cccc(-c2nc3ccccc3c3nc(-c4ccccc4)c(-c4ccccc4)n23)c1` [11c, 5-(3-chlorophenyl)-2,3-diphenylimidazo[1,2-c]quinazoline]: the IC50 in test [1] came to 246.49 ± 0.18 µM.
Same read-out and setting: to `Clc1ccccc1-c1nc2ccccc2c2nc(-c3ccccc3)c(-c3ccccc3)n12` [11d, 5-(2-chlorophenyl)-2,3-diphenylimidazo[1,2-c]quinazoline] belongs 253.1 ± 0.26 µM; to `Cc1ccc(-c2nc3ccccc3c3nc(-c4ccccc4)c(-c4ccccc4)n23)cc1` [11e, 5-(4-methylphenyl)-2,3-diphenylimidazo[1,2-c]quinazoline], 124.5 ± 0.29 µM.
Still for that read-out and setting: to `CN(C)c1ccc(-c2nc3ccccc3c3nc(-c4ccccc4)c(-c4ccccc4)n23)cc1` [11f, 4-(2,3-diphenylimidazo[1,2-c]quinazolin-5-yl)-N,N-dimethylaniline] belongs 168.36 ± 0.15 µM.
Still for that read-out and setting: under `COc1ccc(-c2nc3ccccc3c3nc(-c4ccccc4)c(-c4ccccc4)n23)cc1` [11g, 5-(4-methoxyphenyl)-2,3-diphenylimidazo[1,2-c]quinazoline] stands 82.64 ± 0.03 µM; under `COc1cccc(-c2nc3ccccc3c3nc(-c4ccccc4)c(-c4ccccc4)n23)c1` [11h, 5-(3-methoxyphenyl)-2,3-diphenylimidazo[1,2-c]quinazoline], 47.92 ± 0.18 µM; under `COc1ccccc1-c1nc2ccccc2c2nc(-c3ccccc3)c(-c3ccccc3)n12` [11i, 5-(2-methoxyphenyl)-2,3-diphenylimidazo[1,2-c]quinazoline], 24.25 ± 0.13 µM.
On to `COc1cccc(-c2nc3ccccc3c3nc(-c4ccccc4)c(-c4ccccc4)n23)c1OC` [11j, 5-(2,3-dimethoxyphenyl)-2,3-diphenylimidazo[1,2-c]quinazoline], for which the affinity at α-glucosidase [2], expressed as Ki, was 11 µM. Also, the type of inhibition entry on α-glucosidase [2] (Lineweaver–Burk plot: Km increased, Vmax did not change) was “competitive”. Also, the “number of binding sites n” value at α-glucosidase [3] (20 ℃) is listed as 0.3. For the same compound, the “binding constant KA” value at α-glucosidase [3] (20 ℃, protein 46 nM) is on record as 40.5 × 10^4 L mol^–1 s^–1. The “binding constant KA” value on α-glucosidase [3] (60 ℃) was 36.6 × 10^4 L mol^–1 s^–1. The fluorescence quenching mechanism entry on α-glucosidase [3] (tryptophan residues as fluorophores) is “static quenching”. For the same compound, at α-glucosidase [4] (Eq. (5)), the “ΔS (entropy change)” value was 62.9 J mol^–1 K^–1. In addition, the “acting non-covalent force between inhibitor and enzyme” value on α-glucosidase [4] (from signs of ΔH and ΔS) is listed as “electrostatic forces”. For the same compound, at α-glucosidase [5] (native enzyme 28.8), the “α-Helix content of α-glucosidase” value was 50.3% and the “ꞵ-Turn content of α-glucosidase” value is recorded as 49.7%. Moreover, the “Random coil content of α-glucosidase” value at α-glucosidase [5] (native enzyme 42.4) was determined as 0%.
For the compound `COc1ccc(-c2nc3ccccc3c3nc(-c4ccccc4)c(-c4ccccc4)n23)c(OC)c1` [11k, 5-(2,4-dimethoxyphenyl)-2,3-diphenylimidazo[1,2-c]quinazoline], the IC50 in test [1] is 14.32 ± 0.05 µM.
Same read-out and setting: to `COc1ccc(OC)c(-c2nc3ccccc3c3nc(-c4ccccc4)c(-c4ccccc4)n23)c1` [11l, 5-(2,5-dimethoxyphenyl)-2,3-diphenylimidazo[1,2-c]quinazoline] belongs 64.29 ± 0.54 µM.
For the compound `COc1ccc(-c2nc3ccccc3c3nc(-c4ccccc4)c(-c4ccccc4)n23)cc1OC` [11m, 5-(3,4-dimethoxyphenyl)-2,3-diphenylimidazo[1,2-c]quinazoline], in test [1], the IC50 worked out at 21.6 ± 0.32 µM.
With `COc1cc(-c2nc3ccccc3c3nc(-c4ccccc4)c(-c4ccccc4)n23)cc(OC)c1OC` [11n, 2,3-diphenyl-5-(3,4,5-trimethoxyphenyl)imidazo[1,2-c]quinazoline], the IC50 in test [1] was found to be 46.73 ± 0.07 µM.
On to `COc1cc(-c2nc3ccccc3c3nc(-c4ccccc4)c(-c4ccccc4)n23)cc(Br)c1OC` [11o, 5-(3-bromo-4,5-dimethoxyphenyl)-2,3-diphenylimidazo[1,2-c]quinazoline], for which, in test [1], the IC50 was determined as 154.9 ± 0.36 µM.
